Drawing on patent US20040186081A1, “Naaladase inhibitors for treating opioid tolerance” (Guilford Pharmaceuticals Inc., priority 2003, published 2004), this text covers IC50 and Ki for 41 molecules.

The target of this assay is NAALADase (Homo sapiens, UniProt Q04609). As to the kind of experiment: In vitro inhibition of NAALADase activity. The assay is classed as biochemical. The note with it: for IC50: read-out: IC50.

Structures are written as SMILES.

Sequence of NAALADase (Q04609 whole entry): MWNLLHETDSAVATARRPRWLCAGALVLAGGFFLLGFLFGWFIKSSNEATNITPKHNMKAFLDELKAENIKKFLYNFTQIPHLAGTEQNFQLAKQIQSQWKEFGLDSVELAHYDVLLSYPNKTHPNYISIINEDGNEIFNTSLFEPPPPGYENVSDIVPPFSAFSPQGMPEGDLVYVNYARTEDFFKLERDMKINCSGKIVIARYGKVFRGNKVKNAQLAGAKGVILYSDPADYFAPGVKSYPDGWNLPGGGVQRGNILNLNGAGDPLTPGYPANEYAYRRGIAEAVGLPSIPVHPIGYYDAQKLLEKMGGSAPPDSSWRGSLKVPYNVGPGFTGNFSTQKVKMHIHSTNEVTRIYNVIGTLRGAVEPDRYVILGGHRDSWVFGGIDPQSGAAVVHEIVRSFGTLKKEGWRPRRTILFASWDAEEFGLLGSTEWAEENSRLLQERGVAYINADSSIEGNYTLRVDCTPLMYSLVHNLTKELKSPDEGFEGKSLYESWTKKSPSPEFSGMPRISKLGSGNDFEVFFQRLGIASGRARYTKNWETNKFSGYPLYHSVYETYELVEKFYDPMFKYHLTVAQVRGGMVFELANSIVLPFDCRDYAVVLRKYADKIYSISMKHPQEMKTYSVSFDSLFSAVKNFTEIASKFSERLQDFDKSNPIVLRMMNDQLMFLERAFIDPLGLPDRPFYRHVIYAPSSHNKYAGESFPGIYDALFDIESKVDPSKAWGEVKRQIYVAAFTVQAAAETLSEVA

The term IC50 denotes the midpoint of a concentration-inhibition curve. As to `O=C(O)c1cc(CC(CCCS)C(=O)O)ccc1-c1ccccc1` (centres unmarked) [4-(2-carboxy-5-mercaptopentyl)-[1,1′-biphenyl]-2-carboxylic acid], the IC50 is 18 nM.

Consider `O=C(O)c1ccccc1Oc1ccc(CC(CCCS)C(=O)O)cc1` (stereo not drawn) [4-(2-carboxyphenoxy)-alpha-(3-mercaptopropyl)-benzenepropanoic acid], for which the IC50 was determined as 3590 nM.

In the case of `N#Cc1ccccc1-c1ccc(CC(CCCS)C(=O)O)cc1` (stereo not drawn) [4-(2-cyanophenyl)-alpha-(3-mercaptopropyl)-benzenepropanoic acid], the IC50 turned out to be 316 nM.

By Ki is commonly meant the dissociation constant of the complex between target and ligand, obtained from inhibition or displacement. Low values mean higher affinity, high ones lower affinity. `O=C(O)c1ccc(CCS)c(C(=O)O)c1` [4-(2-mercaptoethyl)-1,3-benzenedicarboxylic acid] registered a Ki of 0.116 µM.

`O=C(CCCSCc1ccc(-c2cccc(C(=O)O)c2)c(C(=O)O)c1)NO` [4-(3-Hydroxycarbamoyl-propylsulfanylmethyl)-biphenyl-2,3′-dicarboxylic acid]: the IC50 stood at 10800 nM.

On to `N#Cc1ccc(COc2ccc(C(=O)NO)cc2)cc1` [4-(4-Cyano-benzyloxy)-N-hydroxy-benzamide], for which the IC50 stood at 14200 nM.

On to `O=C(NO)c1ccc(Oc2ccc(F)cc2)c([N+](=O)[O-])c1` [4-(4-Fluoro-phenoxy)-N-hydroxy-3-nitro-benzamide], for which the half-inhibitory concentration (IC50) is not below 100000 nM.

With `CC(=O)Nc1ccc(CC(CCCS)C(=O)O)cc1` (stereo not drawn) [4-(acetylamino)-alpha-(3-mercaptopropyl)-benzenepropanoic acid], the IC50 amounted to 2200 nM.

With `O=C(O)Cc1ccc(CC(CCCS)C(=O)O)cc1` (stereo not drawn) [4-(carboxymethyl)-alpha-(3-mercaptopropyl)-benzenepropanoic acid], the IC50 amounted to 809 nM.

As for `O=C(O)c1cccc(-c2ccc(CS)cc2C(=O)O)c1` [4-(mercaptomethyl)-[1,1′-biphenyl]-2,3′-dicarboxylic acid], the IC50 amounted to 76 nM.

In turn, `O=C(O)c1ccc(OCCCSSCCCOc2ccc(C(=O)O)cc2C(=O)O)c(C(=O)O)c1` [4-[3-[[3-(2,4-dicarboxyphenoxy)-propyl]-dithio]propoxy]-1,3-benzenedicarboxylic acid] had a Ki of 3.75 µM.

On to `O=C(O)c1ccc(C(=O)c2ccc(Oc3ccc(C(=O)O)c(C(=O)O)c3)cc2)c(C(=O)O)c1` [4-[4-(2,4-dicarboxybenzoyl)phenoxy]-1,2-benzenedicarboxylic acid], for which affinity was put at a Ki of 1.17 µM.

Take `O=C(O)c1ccc(Sc2ccccc2C(=O)O)c(C(=O)O)c1` [4-[(2-carboxyphenyl)thio]-1,3-benzenedicarboxylic acid]: affinity was put at a Ki of 3.98 µM.

Turning to `O=C(O)c1ccc(Br)c(CS)c1` [4-bromo-3-(mercaptomethyl)-benzoic acid], the IC50 came to 3200 nM.

As for `O=C(O)c1c(F)c(F)c(CC(CCCS)C(=O)O)c(F)c1F` (stereo not drawn) [4-carboxy-2,3,5,6-tetrafluoro-alpha-(3-mercaptopropyl)-benzenepropanoic acid], the IC50 was found to be 660 nM.

With `O=C(O)c1ccc(CC(CCCS)C(=O)O)c2ccccc12` (stereo not drawn) [4-carboxy-alpha-(3-mercaptopropyl)-1-naphthalenepropanoic acid], the IC50 is 316 nM.

As to `O=C(O)c1ccc(CC(CCCS)C(=O)O)cc1` (stereo not drawn) [4-carboxy-alpha-(3-mercaptopropyl)-benzenepropanoic acid], the IC50 was found to be 59 nM.

As for `O=C(O)C(CCCS)Cc1ccc(O)cc1` (stereo not drawn) [4-hydroxy-alpha-(3-mercaptopropyl)-benzenepropanoic acid], the IC50 worked out at 2140 nM.

In the case of `O=C(CSCCCC(Cc1cc(C(=O)O)cc(-c2ccccc2)c1)C(=O)O)NO` (centres unmarked) [5-(2-Carboxy-5-hydroxycarbamoylmethyl-sulfanylpentyl)-biphenyl-3-carboxylic acid], the IC50 was determined as 1690 nM.

In the case of `O=C(O)c1cc(CC(CCCS)C(=O)O)cc(C(=O)O)c1` (centres unmarked) [5-(2-carboxy-5-mercaptopentyl)-1,3-benzenedicarboxylic acid], the IC50 is 2.55 nM.

Consider `O=C(O)c1cc(OCCS)cc(C(=O)O)c1` [5-(2-mercaptoethoxy)-1,3-benzenedicarboxylic acid], for which the affinity, expressed as Ki, was 14.5 µM. This counts as double-digit micromolar.

For the molecule `O=C(O)c1cc(CCS)cc(C(=O)O)c1` [5-(2-mercaptoethyl)-1,3-benzenedicarboxylic acid], the Ki amounted to 5.1 µM.

`O=C(O)c1cc(OCCCS)cc(C(=O)O)c1` [5-(3-mercaptopropoxy)-1,3-benzenedicarboxylic acid] returned a Ki of 3.3 µM.

In the case of `O=C(O)c1cc(CS)ccc1OCCc1ccccc1` [5-(mercaptomethyl)-2-(2-phenylethoxy)-benzoic acid], the IC50 turned out to be 188 nM.

Regarding `CCOC(=O)c1cc(C(=O)O)cc(C(=O)NO)c1` [5-Hydroxycarbamoyl-isophthalic acid monoethyl ester], the IC50 was determined as 29000 nM.

As for `O=C(COc1cc(C(=O)O)cc(C(=O)O)c1)NO` [5-Hydroxycarbamoylmethoxy-isophthalic acid], the IC50 was found to be 14800 nM.

`O=C(Cc1cc(C(=O)O)cc(C(=O)O)c1)NO` [5-[2-(hydroxyamino)-2-oxoethyl]-1,3-benzenedicarboxylic acid] yielded a Ki of 12 µM. That is a double-digit micromolar value.

With `O=C(O)c1cccc(COc2ccc(CCS)c(C(=O)O)c2)c1` [5-[(3-carboxyphenyl)methoxy]-2-(2-mercaptoethyl)-benzoic acid], the IC50 worked out at 84.5 nM.

Regarding `O=C(O)c1ccc(COc2ccc(CCS)c(C(=O)O)c2)cc1` [5-[(4-carboxyphenyl)methoxy]-2-(2-mercaptoethyl)-benzoic acid], the IC50 was determined as 71.5 nM.

With `O=C(O)CNc1cc(C(=O)O)cc(C(=O)O)c1` [5-[(carboxymethyl)amino]-1,3-benzenedicarboxylic acid], the affinity corresponds to a Ki of 100 µM.

`O=C(O)c1cc(C(=O)O)cc(C(=O)NO)c1` [5-[(hydroxyamino)-carbonyl]-1,3-benzenedicarboxylic acid]: the Ki worked out at 1 µM. Against the preceding molecule, the Ki is about 100-fold lower.

Regarding `O=C(O)c1cc(CNCc2ccco2)cc(C(=O)O)c1` [5-[[(2-furanylmethyl)amino]methyl]-1,3-benzenedicarboxylic acid], the affinity corresponds to a Ki of 50 µM.

For the molecule `O=C(O)c1ccc(Cl)c(CC(CCCS)C(=O)O)c1` (stereo not drawn) [5-carboxy-2-chloro-alpha-(3-mercaptopropyl)-benzenepropanoic acid], the IC50 amounted to 2.09 nM.

As for `O=C(O)c1ccc(F)c(CC(CCCS)C(=O)O)c1` (stereo not drawn) [5-carboxy-2-fluoro-alpha-(3-mercaptopropyl)-benzenepropanoic acid], the IC50 worked out at 6.33 nM.

For `COc1ccc(C(=O)O)cc1CC(CCCS)C(=O)O` (stereo not drawn) [5-carboxy-alpha-(3-mercaptopropyl)-2-methoxy-benzenepropanoic acid], the IC50 is 26 nM.

For `O=C(O)c1ccc([N+](=O)[O-])c(CC(CCCS)C(=O)O)c1` (stereo not drawn) [5-carboxy-alpha-(3-mercaptopropyl)-2-nitro-benzenepropanoic acid], the IC50 was 8.25 nM.

For the molecule `O=C(O)c1cc(O)ccc1CCS` [5-hydroxy-2-(2-mercaptoethyl)-benzoic acid], the 50% inhibitory concentration (IC50) came to 9170 nM.

Take `O=C(O)C(CCCS)Sc1ccccc1` (centres unmarked) [5-mercapto-2-(phenylthio)-pentanoic acid]: the IC50 is 297 nM.

Regarding `O=C(O)C(CCCS)Oc1ccccc1` (centres unmarked) [5-mercapto-2-phenoxy-pentanoic acid], the IC50 is 555 nM.

As for `O=C(O)c1cc(CS)cc(C(=O)O)c1` [5-mercaptomethyl-1,3-benzenedicarboxylic acid], the Ki worked out at 6.5 µM.

The molecule `O=C(O)c1cc(C(=O)O)cc(P(=O)(O)O)c1` [5-phosphono-1,3-benzenedicarboxylic acid] yielded a Ki of 14 µM. Compared with the last molecule, the Ki is about 2.2-fold higher.
